Assay results reported in patent publication US12729368B2, “Methods and compositions for generating oligodendrocyte progenitor cells” (Trailhead Biosystems Inc., priority 2022, dated 2026).

Key:
Format in all cases: cell-based, human
[1] = test system: pre-OPCs; assay: HD-DoE 12-factor model for stage 2 (version 1), 3 days on stage 1 pre-OPCs; conditions: for factor contribution: optimized for maximum expression of OLIG2 at 1841.6
Procedure, shortened: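 Cells grown first in stage 1 medium were treated for 3 days with combinations of 8 or 12 factors, including FGF, TGF-b, WNT, RA, AKT, SHH, mTOR and PKC pathway modulators. Gene expression was modelled and maximized for OLIG2, with NKX2-2, SOX10, OLIG1 and PDGFRa tracked by dynamic profile analysis.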

[2] = test system: stage 2 early-OPCs; assay: HD-DoE 12-factor model for stage 3 (version 1) on stage 2 early-OPCs; conditions: positive
Experimental: In another model, the effects of Activin A and TTNPB along with LDN193189, MHY1485, PDGF-AA, AICAR, FGF2, CHIR99021, DBZ, MK2206, Purmorphamine and T3+T4 were tested on gene profile of differentiating cells. When this model was optimized for maximum expression of SOX10 at 54.7, we observed Activin A again had positive regulatory impact on its expression, with factor contribution of 4.7. Other positive factors included MK2206, with the highest factor contribution at 16.2, MHY1485 at 11.49, CHIR99021 at 9.6, DBZ at 9.3, FGF2 at 3.6 and PDGF-AA, with factor contribution less than 3 (FIG. 20).
In this model, we also investigated the conditions of expression of another important OPC gene, CSPG4 (Goldman and Kuypers (2015) Development 142:3983-95: van Tilborg et al. (2018) Glia 66:221-238).
Dynamic profile analysis was used to better assess the impact of the factors on our selected genes and find the combination set that can optimize their expression (FIG. 22). According to this analysis, even though Activin A has a positive effect on SOX10, it decreases level of PDGFRa and OLIG1. […] Moreover, SOX10 is one of the main transcription factors of oligodendrocytes, along with OLIG2 and NKX2-2, that has shown the potential to commit the stem cells to oligodendrocytes in reprogramming efforts (Wang et al. (2014) Proc Natl Acad Sci USA 111:E2885-94; Garciá-León et al. (2018) Stem Cell Reports 10:655-672). […] One of the main challenges of differentiating cells to oligodendrocyte fate is controlling the mixed population and increasing the purity of the culture by committing more cells to oligodendrocyte over neuronal identity. Therefore, DBZ was excluded from the final recipe.
At this point, we investigated the expression profile of a larger group of genes defining oligodendrocyte progenitor population at a later stage, including ID2, CNP and BCAN (Perlman et al. (2020). Glia 68:1291-1303; Goldman and Kuypers (2015) Development 142:3983-95). In this model, these genes were expressed at 1900, 660 and 44, respectively.

[3] = test system: pre-OPCs; assay: HD-DoE 8-factor model for stage 2 (version 2) on pre-OPCs; conditions: positive
Experimental: To engineer the recipe of stage 2 of differentiation, cells were first cultured in the stage 1 media described in Example 1, then, 48 or 96 different combinations of effectors generated using Design-of-Experiments compression through D-optimality were robotically prepared. The effector combinations were prepared in a basal media and were subsequently added to the cells, which were then allowed to differentiate. Three days later RNA extraction was performed, and gene expression was obtained using quantitative PCR analysis. The data was normalized and modeled using partial least squares regression analysis to the effector design, resulting in the generation of gene-specific models, which after model tuning for maximal predictive power, provided explanation of the effectors ability to control the expression of individual genes, combinatorically, and individually. Solutions within the tested space could then be explored to address desirability.
At this point, due to short duration of culture (only six days in vitro) we decided to focus on maximal expression of OLIG2 and maintenance of high expression of NKX2-2, while initiating expression of SOX10, OLIG1 and PDGFRa, to guide the cells towards oligodendrocyte fate (Emery and Lu (2015). Cold Spring Harb Perspect Biol. 7:a020461; Perlman et al. (2020). Glia 68:1291-1303; Goldman and Kuypers (2015) Development 142:3983-95). In one 8-factor model, the individual and combinatorial impact of CHIR99021 (a WNT pathway agonist), AGN193109 (an RA pathway antagonist), FGF-2 (an FGFR agonist), Purmorphamine (an SHH pathway agonist), AICAR (an AMPK agonist), GW3965 (an LXR pathway agonist), GW590735 (a PPAR-a agonist) and AZD3147 (a mTOR antagonist) on further differentiation of cells were tested.

[4] = optimized for maximum expression of OLIG1 at 454.7
[5] = optimized for maximum expression of OLIG2 at 3325

Compound | factor contribution ([1]; positive regulatory effect) | factor contribution ([2]; optimized for maximum expression of SOX10 at 54.7) | factor contribution [3, 4] | factor contribution [3, 5] | effect on expression of SOX10 ([1]; dynamic profile, model maximized for OLIG2) | factor contribution ([1]; negative impact) | factor contribution ([2]; optimized for maximum expression of CSPG4 at 38.6)
FGF2: FGF pathway activator, an FGFR agonist | 12.9 | 3.6 | 9.9 | 5.2 | – | – | –
c1ccc2c(Oc3nc(Nc4ccc(N5CCOCC5)cc4)c4ncn(C5CCCCC5)c4n3)cccc2c1 [Purmorphamine] | – | – | 22.75 | 7.39 | positively regulate | 7.2 | 10.3
